# Measurements as given in US20150224157A1, “PROCESS FOR THE PREPARATION OF HERBAL EXTRACT OF CASSIA TORA LEAVES FOR TREATING ANXIETY DISORDERS” (priority 2009, published 2015).
# Experiments:
# [1] = test system: aflatoxin B-1-8,9-epoxide formation; conditions: cited from earlier work
# [2] = cited from earlier work
# [3] = dose of 0.2 mg/mL; cited from earlier work
# Swiss Albino male mice = experiment: Elevated plus maze test in mice; type: in vivo; conditions: Diazepam 1.5 mg/kg p.o.
# Method: 1. Animals: Swiss Albino male mice 20-25 gm body weights were procured from Laboratory Animal Services Division of Central Drug Research Institute, Lucknow. All animals were kept in polyacrylic cage in environmentally controlled rooms (temperature 24-27° C. and humidity 60-65% with 12:12 light:dark cycle). Food was provided in the form of dry pellets and water ad libitum. Each animal was used only once in the behavioral tests and were habituated with the experimental room one day prior to the experiment All experiments involving animals complies with the ethical standards of animal handling and approved by Institutional Animal Ethics Committee.
# Treatment of animals: Diazepam was diluted in distilled water, administered by […]. The extract was dissolved in 0.5% gum acacia suspension and administered by oral route.
# Elevated plus maze test in mice: This test was used to evaluate the anti-anxiety activity. The test is based on the principal of conflict between exploration and fear of open/or closed arms. Apparatus consists of a raised stainless steel maze of four arms arranged in ‘+’ sign. Two of opposite arms are enclosed by raised walls whereas other arms are kept open. All the four arms consist of infrared beams at regular distance. The movement of animal across the arms is calculated by interruption of beams, which was analyzed by Maze Tracking Software (M/s. Columbus Instruments, USA). The trial was started by placing an animal on the central platform of the maze facing an open arm. Animals were given a period of 2 min to acclimatize with its surroundings. The time spent in each of the two types of arm was recorded during the next 5 min test period. The percentage open arm time were used as index of anxiety. The apparatus was cleaned thoroughly between trials with damp and dry towels.
# Diazepam (1.5 mg/kg) and the Cassia tora leaves extract (100 mg/kg) was orally administered one hour prior to the experiment.
smiles,measurement,setting,value
"O=C1c2cccc(O)c2C(=O)c2cccc(O)c21 [anthrarufm, anthrarufin]",IC50,[1],11.5 µM
O=C1c2ccccc2C(=O)c2c(O)ccc(O)c21 [quinizarin],IC50,[1],4.12 µM
O=C1c2ccc(O)cc2C(=O)c2ccc(O)cc21 [anthraflavine],IC50,[1],26.9 µM
CC1=CCC(O)(C(C)C)CC1 (stereo not drawn) [4-terpineol],IC50 against hydroxyl radicals,[2],87.5 mu g/mL
Cc1c(C)c2c(c(C)c1O)CC[C@@](C)(CCC[C@H](C)CCC[C@H](C)CCCC(C)C)O2 [alpha-tocopherol],inhibition of peroxidation of linoleic acid,[3],82%
CN1C(=O)CN=C(c2ccccc2)c2cc(Cl)ccc21 [Diazepam],percentage of time spent in open arms in comparison to saline treated control mice,"Swiss Albino male mice; extract 100 mg/kg p.o., P<0.01",significant increase
same,% time spent in open arms,"Swiss Albino male mice; mice, extracts 100 mg/kg p.o.",23.38%
same,Time spent in open arms (secs) out of 300 secs,"Swiss Albino male mice; mice, extracts 100 mg/kg p.o., one hour prior, Mean ± SEM",70.16 ± 4.09 s
O=c1c(O)c(-c2ccc(O)c(O)c2)oc2cc(O)cc(O)c12 [quercetin],IC50 against hydroxyl radicals,[2],8.15 mu g/mL
